The target in one series is IDH1(R132H) (Homo sapiens, UniProt O75874, R132H). As to the kind of experiment: IDH1 in vitro enzyme activity test (IDH1 R132H). It counts as biochemical. The settings on record: 1500 μM α-KG + 15 μM NADPH. Here is the method: (§1) The IDH1 mutant catalyzes the NADPH-dependent reduction of α-KG (α-ketoglutarate) to 2-HG (2-hydroxyglutarate), and the consumed NADPH can be read by fluorescence.
(§2) Basic reaction buffer: 50 mM KH2PO4, pH 7.5, 10 mM MgCl2, 10% glycerol, 150 mM NaCl, 0.05% BSA (bovine serum albumin), 2 mM b-ME (2-mercaptoethanol), 0.003% Brij35 (polyethylene glycol lauryl ether)
(§3) Substrates and cofactors: • IDH1 wt (wild type): 65 μM isocitrate+50 μM NADP • IDH1(R132H): 1500 μM α-KG+15 μM NADPH • IDH1(R132C): 500 μM α-KG+15 μM NADPH
(§4) 1.33× enzyme (no enzyme in the control well), buffer, and NADP or NADPH (control well) were added into the wells of the reaction plate. The test compound was dissolved in 100% DMSO and then added to the enzyme mixture (Echo550, nanoliter level), and incubated for 60 minutes after simple centrifugation. A mixture of 4× substrate and cofactor were added to start the reaction. After simple centrifugation, the plate was incubated under shaking at room temperature for 45 minutes. A mixture of 3× lipoamide dehydrogenase and Resazurin was prepared, added to the reaction solution to test the amount of NADPH generated or remaining, and incubated at room temperature for 10 minutes after simple centrifugation. Multifunctional microplate reader Envision was used to measure (Ex/Em=535/590 nm).

The next series concerns the target IDH1(R132C) (Homo sapiens, UniProt O75874, R132C). Put plainly: IDH1 in vitro enzyme activity test (IDH1 R132C). It counts as biochemical. The following applies: 500 μM α-KG + 15 μM NADPH. As to the method: as §1, §2, §3, §4
A further series has as its target IDH1 wt (wild type) (Homo sapiens, UniProt O75874). Put plainly: IDH1 in vitro enzyme activity test (IDH1 wild type). The class given is biochemical. The settings on record: 65 μM isocitrate + 50 μM NADP. As to the method:
as §1, §2, §3, §4

In series [1] the test system is U87MG-IDH1-R132H cell strain. Put plainly: IDH1 cytological activity test, 2HG content in cell culture supernatant by LC-MS. It counts as cell-based. The following applies: Homo sapiens, U-87 MG, 72 h; 2-HG in supernatant, 3 days incubation. Here is the method:
In this study, the compound was incubated with the IDH1 mutant cell line, and the 2HG content in the cell culture supernatant was detected by LC-MS to determine the inhibitory activity of the compound on the IDH1 mutant. IDH1 catalyzes the […] of isocitrate to α-ketoglutarate (α-KG) in organisms, and the IDH1 mutant further catalyzes the reduction of α-KG to 2-hydroxyglutarate (2HG). The U87MG-IDH1-R132H cell strain is a stable transfected cell strain that can stably express IDH1-R132H mutant, obtained via screening by transfecting U87MG cells with IDH1-R132H, and the HT1080 cell strain contains an endogenous IDH1-R132C mutant. 1) The compound was diluted 3-fold with DMSO and then added to the cell culture plate, at a total of 10 concentrations, double duplicate holes for each concentration. The negative control well contains only DMSO, and the positive control well contained BAY1436032 at a final concentration of 5 μM. The final concentration of DMSO in all wells was 0.5%. 2) The IDH1 mutant cell line was seeded into a cell culture plate containing the compound at a density of 40,000 cells/well. The cells were incubated with the compound in a incubator at 37° C., 5% CO2 for 3 days. […]

A short description of series [2]: Evaluation of pharmacokinetics in mice. It counts as in vivo, CD-1 mice. The following applies: for AUC(0-t): read-out: Area under curve AUC0-last. As to the method:
1) Experimental drug: Example 6;
2) Experimental animals: 8 male CD-1 mice aged 7-10 weeks, divided into 2 groups, 4 in each group;
3) Drug preparation: for the tail vein injection group, an appropriate amount of the drug was weighted, and dissolved in a mixed solvent of DMSO: 20% hydroxypropyl betacyclodextrin (HPbCD)=10:90 to prepare a 0.5 mg/mL solution; for the intragastric administration group, an appropriate amount of the drug was weighted, and dissolved in DMSO: polyoxyethylene castor oil EL (Cremophor EL):5% sulfobutyl cyclodextrin (Captisol)=5:10:85 to prepare a suspension.
Animals in group 1 were given a single injection of the drug at a dose of 1 mg/kg and a concentration of 0.5 mg/mL via tail vein, and animals in group 2 were given a compound at a dose of 20 mg/kg and a concentration of 2 mg/mL via gavage. Plasma samples were cross-collected from the animals at 0.0833 (tail vein injection group only), 0.25, 0.5, 1, 2, 4, 6, 8 and 24 hours after administration. The LC-MS/MS method was used to determine the drug concentration in the plasma sample, and the kinetic parameters of the tested drug are shown in Table 4: […]

SMILES strings stand for the structures. Where two headings read alike, the source gives them in different places.

Sequence of IDH1(R132H) (O75874 whole entry R132H): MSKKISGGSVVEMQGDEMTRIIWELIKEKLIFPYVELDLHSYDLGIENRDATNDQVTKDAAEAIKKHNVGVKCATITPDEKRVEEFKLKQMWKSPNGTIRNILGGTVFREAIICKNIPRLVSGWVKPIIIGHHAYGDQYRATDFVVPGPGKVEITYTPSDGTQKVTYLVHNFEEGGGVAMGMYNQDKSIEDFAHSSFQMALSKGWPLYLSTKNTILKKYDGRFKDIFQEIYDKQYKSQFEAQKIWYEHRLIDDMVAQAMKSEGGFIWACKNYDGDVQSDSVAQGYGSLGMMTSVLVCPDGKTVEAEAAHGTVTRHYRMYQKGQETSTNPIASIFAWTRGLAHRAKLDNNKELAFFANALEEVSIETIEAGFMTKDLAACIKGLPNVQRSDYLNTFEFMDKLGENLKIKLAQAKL
Sequence of IDH1(R132C) (O75874 whole entry R132C): as the sequence (O75874 whole entry R132H) above, with H132C counted along it
Sequence of IDH1 wt (wild type) (O75874 whole entry): as the sequence (O75874 whole entry R132H) above, with H132R counted along it

One may read the IC50 as the concentration at which inhibition is half-maximal. Regarding `C[C@H](c1ccccc1)n1c(Nc2ccc(OC(F)(F)F)cc2)nc2cc(CCC(=O)O)ccc21` [Example 1], the IC50 is 7.9 nM at IDH1(R132H), 102 nM at IDH1(R132C), > 10000 nM at IDH1 wt (wild type) and 92.8 nM in series [1].

`C[C@@H](c1ccccc1)n1c(Nc2ccc(OC(F)(F)F)cc2)nc2cc(CCC(=O)O)ccc21` [Example 2]: the 50% inhibitory concentration (IC50) on IDH1(R132H) was found to be 464 nM.

As to `C[C@H](c1ccc(Cl)cc1)n1c(Nc2ccc(OC(F)(F)F)cc2)nc2cc(CCC(=O)O)ccc21` [Example 3], on IDH1(R132H), the IC50 amounted to 320 nM.

In the case of `C[C@H](c1ccc(F)cc1)n1c(Nc2ccc(OC(F)(F)F)cc2)nc2cc(CCC(=O)O)ccc21` [Example 4], the IC50 at IDH1(R132H) is 126 nM.

Turning to `CC[C@H](c1ccccc1)n1c(Nc2ccc(OC(F)(F)F)cc2)nc2cc(CCC(=O)O)ccc21` [Example 5], the IC50 on IDH1(R132H) came to 89.5 nM.

One may read the clearance as a measure of how efficiently the substance is removed, as volume per time. One may read the Vd as a proportionality between amount in the body and measured concentration, not a real space. For orientation: bioavailability means dose-corrected exposure relative to a reference, in per cent. For the compound `O=C(O)CCc1ccc2c(c1)nc(Nc1ccc(OC(F)(F)F)cc1)n2[C@@H]1CCCc2ccccc21` [Example 6], the IC50 on IDH1(R132H) is 3.94 nM; at IDH1(R132C), 12.8 nM; on IDH1 wt (wild type) it was > 10000 nM; in series [1], 38.2 nM. For the same compound, the “pharmacokinetic properties in mice (in words)” value in series [2] (mice) is reported as “good pharmacokinetic properties”. The AUC(0-t) in series [2] (mouse, iv, male CD-1 mice, tail vein injection, 1 mg/kg, plasma) is 15.5 µM·h; in series [2] (mouse, po, male CD-1 mice, intragastric administration, 20 mg/kg, plasma), 307 µM·h. In addition, in series [2] (mouse, iv, male CD-1 mice, tail vein injection, 1 mg/kg, plasma, read-out: Initial concentration C0), the C0 stood at 3.54 µM. For the same compound, the clearance in series [2] (mouse, plasma, iv, male CD-1 mice, tail vein injection, 1 mg/kg, read-out: Clearance Cl) was 2.17 mL/min/kg. Besides, the half-life in series [2] (mouse, plasma, iv, male CD-1 mice, tail vein injection, 1 mg/kg, read-out: Half-life T1/2 (converted)) is 2.9 h. Further, the distribution volume (Vd) in series [2] (mouse, plasma, iv, male CD-1 mice, tail vein injection, 1 mg/kg, read-out: Volume of distribution Vd) is 0.69 L/kg. Moreover, the bioavailability in series [2] (mouse, plasma, po, male CD-1 mice, intragastric 20 mg/kg vs tail vein 1 mg/kg, read-out: Bioavailability F) turned out to be 99.1%. Moreover, the Tmax in series [2] (mouse, plasma, po, male CD-1 mice, intragastric administration, 20 mg/kg, read-out: Time of highest concentration T1/2 (converted)) is 1 h. Moreover, the Cmax in series [2] (mouse, po, male CD-1 mice, intragastric administration, 20 mg/kg, plasma, read-out: Highest concentration Cmax) came out at 33.4 µM.

As for `C[C@H](c1cccc(Cl)c1)n1c(Nc2ccc(OC(F)(F)F)cc2)nc2cc(CCC(=O)O)ccc21` [Example 7], the IC50 at IDH1(R132H) is 121 nM.

For `O=C(O)CCc1ccc2c(c1)nc(Nc1ccc(OC(F)(F)F)cc1)n2[C@@H]1CCc2ccccc21` [Example 8], the IC50 on IDH1(R132H) came out at 2.88 nM.

Consider `O=C(O)CCc1ccc2c(c1)nc(Nc1ccc(OC(F)(F)F)cc1)n2C(c1ccccc1)c1ccccc1` [Example 9], for which the IC50 on IDH1(R132H) turned out to be 21.9 nM.

Turning to `COc1ccccc1[C@@H](C)n1c(Nc2ccc(OC(F)(F)F)cc2)nc2cc(CCC(=O)O)ccc21` [Example 10], on IDH1(R132H), the concentration for half-maximal inhibition (IC50) amounted to 344 nM.

On to `CC(C)(C)[C@H](c1ccccc1)n1c(Nc2ccc(OC(F)(F)F)cc2)nc2cc(CCC(=O)O)ccc21` [Example 11], for which the half-maximal inhibitory concentration (IC50) on IDH1(R132H) stood at 24.5 nM.

As for `O=C(O)CCc1ccc2c(c1)nc(Nc1ccc(OC(F)(F)F)cc1)n2[C@@H](c1ccccc1)C1CC1` [Example 12], the IC50 at IDH1(R132H) is 15.7 nM.

For the origin of these results see patent US11407717B2, “Benzimidazole derivatives and use thereof as IDH1 inhibitors” (KPC PHARMACEUTICALS, INC., priority 2018, dated 2022).
